Measured values from paper PMC5423902, “CXCL9-Derived Peptides Differentially Inhibit Neutrophil Migration In Vivo through Interference with Glycosaminoglycan Interactions” (Frontiers in Immunology, 2017).

Tests used:
[1] = tested on: CXCL8-induced neutrophil migration; experiment: CXCL8-induced neutrophil migration to the knee cavity; assay type: in vivo, mouse (C57BL/6); settings: 66 µg peptide i.v., 1 µg CXCL8 intra-articular, C57BL/6, 3 h, n ≥ 5, Figure 5
Method: In vivo neutrophil extravasation to the peritoneal or the knee cavity was examined, respectively, by intraperitoneal or intra-articular injection, of endotoxin-free recombinant CXCL8(1-77) (PeproTech) or vehicle (PBS) in female NMRI or C57BL/6 mice, as described previously ([42], [48]). Simultaneously, synthetic CXCL9 peptide was co-injected either intraperitoneally or injected intravenously. After 2 h (peritoneal cavity) or 3 h (knee cavity), mice were sacrificed. The peritoneal cavity was washed with saline enriched with 2% FCS and 20 U/ml heparin and total leukocyte counts were determined. For the preparation of cytospins, 10^5 cells were used and absolute number and percentage of neutrophils in the lavages were determined in duplicate independently by two researchers by differential microscopic counting. […] The number of total leukocytes was determined by counting leukocytes in a Neubauer chamber after staining with Turk’s solution. […]
Figure 5 CXCL9(74-93) inhibits CXCL8-induced but not monosodium urate (MSU) crystal-induced neutrophil migration to the knee cavity. […] Simultaneously, 66 µg of CXCL9(74-93) was injected intravenously and 3 h post injection the number of total cells (A) and neutrophils (B) were evaluated by washing the cavity and differentially counting the leukocyte subtypes on May-Grunwald-Giemsa-stained cytospins. […]

[2] = tested on: neutrophil adhesion to the endothelium; experiment: CXCL8-induced neutrophil adhesion in the murine cremaster muscle model; assay type: in vivo, mouse (C57Bl/6J); settings: 108 µg peptide i.v., Figure 8
Method: Mice were anesthetized by intraperitoneal injection of 200 mg/kg ketamine (Bayer Inc. Animal Health) and 10 mg/kg xylazine (Bimeda-MTC). After anesthesia, the right jugular vein was cannulated for maintenance of anesthesia and to permit the delivery of the fluorescence-labeled antibodies. Mice were injected intravenously (via jugular vein) with either saline or CXCL9(74-103) 5 min prior to an intrascrotal injection of 1 or 3 µg CXCL8. The animals were placed on a water-heated operating table to maintain body temperature at ~37°C. The depth of anesthesia was controlled by regularly monitoring peripheral reflexes. The cremaster muscle was prepared as previously described ([50]). […] Single unbranched cremasteric venules with a diameter of ~25–40 μm were selected and their blood flow was recorded during a 5 min period. […] A 512 × 512 pixel back-thinned EMCCD camera (C9100-13, Hamamatsu, Bridgewater, NJ, USA) was used for fluorescence detection. […] Images captured using the spinning disk were processed and analyzed in Volocity 4.20. Periods of 5 min/field of view were recorded at 45, 60, and 90 min after CXCL8 administration. A neutrophil was considered to be adherent if it remained stationary for at least 30 s, and total neutrophil adhesion was quantified as the number of adherent cells within a 100-µm length of venule. […]

[3] = previously reported; read-out: KD for LMWH; cited from earlier work
Method: To obtain more insight in the contribution of the unique COOH-terminal region of CXCL9 and in the specificity of CXCL9-derived peptides for different GAGs, the affinity of CXCL9(74–93) for LMWH, HS, and CS was determined by IFT. […] A biphasic binding isotherm was obtained when titrating CXCL9(74-93) with HS, indicating more than one binding site for the peptide on this GAG. Fitting only the initial high-affinity phase, a KD ...

[4] = tested on: CXCL8(1-77) binding to heparin; settings: compared with CXCL9(74-103) missing 5 to 12 NH2-terminal residues; cited from earlier work
Method: To further investigate the role of the COOH-terminal amino acids, the ability of CXCL9(74-93) to inhibit binding of chemokines to heparin and HS was evaluated. CXCL9(74-93) and CXCL9(74-103) together with a COOH-terminal peptide of one of the strongest GAG-binding chemokines, namely, CXCL4(47-70), were compared in an ELISA-like assay to compete with CXCL8 for heparin bind ...

[5] = tested on: CXCL8-induced neutrophil migration; settings: CXCL8 into tibiofemoral articulation of C57BL/6 mice; cited from earlier work

Row | Substance | neutrophils in the joint upon CXCL8 ([1]; control 13.3 × 10^3) | percentage of neutrophils in the joint upon CXCL8 ([1]; control 60.5%) [%] | adherence of neutrophils to the endothelium ([2]; 1 µg CXCL8 intrascrotal) | adherence of neutrophils to the endothelium ([2]; 3 µg CXCL8 intrascrotal) | Kd [3] [nM] | competition with CXCL8 for heparin binding [4] | inhibition of neutrophil chemotactic activity of CXCL8 in the tibiofemoral articulation [5]
1 | 74KKKQKNGKKHQKKKVLKVRK93 [CXCL9(74-93), COOH-terminal peptide of CXCL9 lacking the 10 COOH-terminal amino acids of CXCL9(74-103)] | 0.67 × 10^3 neutrophils | 17.5 |  |  |  |  | 
2 | 74KKKQKNGKKHQKKKVLKVRKSQRSRQKKTT103 [CXCL9(74-103), COOH-terminal peptide of CXCL9] |  |  | reduced the adherence of neutrophils to the endothelium significantly | reduced the adherence of neutrophils to the endothelium significantly | 61 | more potently competes with CXCL8 for binding to heparin | could inhibit the neutrophil chemotactic activity of CXCL8 in vivo
